The text below walks through data of ChEMBL document CHEMBL5030530, “Design, synthesis, and cholinesterase inhibition assay of liquiritigenin derivatives as anti-Alzheimer's activity” (Bioorg Med Chem Lett, 2021).

The source made the active and inactive calls. The calls are words filed in the database; no cut-off is given here. Some results are limits rather than exact numbers.

In one test the target is Acetylcholinesterase (Electrophorus electricus, UniProt O42275). Put plainly: Inhibition of electric eel AChE using acetylthiocholine iodide as substrate incubated for 15 to 20 mins by Ellman's method.
Chain of Acetylcholinesterase (O42275 whole entry): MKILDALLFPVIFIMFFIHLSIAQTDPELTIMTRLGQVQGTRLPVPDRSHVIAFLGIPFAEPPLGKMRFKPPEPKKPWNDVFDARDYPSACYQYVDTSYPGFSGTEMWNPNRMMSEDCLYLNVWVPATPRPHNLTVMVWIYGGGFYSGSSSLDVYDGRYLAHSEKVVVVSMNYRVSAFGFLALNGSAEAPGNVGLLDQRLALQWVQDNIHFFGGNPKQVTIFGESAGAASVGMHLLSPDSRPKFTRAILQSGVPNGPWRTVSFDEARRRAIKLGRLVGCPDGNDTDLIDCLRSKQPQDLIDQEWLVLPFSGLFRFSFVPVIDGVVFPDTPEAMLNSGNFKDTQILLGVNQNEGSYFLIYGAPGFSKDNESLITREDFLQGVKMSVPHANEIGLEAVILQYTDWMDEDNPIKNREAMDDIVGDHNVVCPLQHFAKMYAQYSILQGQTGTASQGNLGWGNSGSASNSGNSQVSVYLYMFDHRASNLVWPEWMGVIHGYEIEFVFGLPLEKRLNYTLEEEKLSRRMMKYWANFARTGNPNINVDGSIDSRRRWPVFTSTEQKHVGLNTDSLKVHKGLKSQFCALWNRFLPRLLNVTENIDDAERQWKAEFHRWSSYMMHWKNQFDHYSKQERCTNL
For another test, the target named is Cholinesterase (Equus caballus, UniProt P81908). Put plainly: Inhibition of equine serum BuChE using butyrylthiocholine chloride as substrate incubated for 15 to 20 mins by Ellman's method. The class given is cell-free. Background: In Ellman's method for cholinesterases, released thiocholine reacts with DTNB.
Chain of Cholinesterase (P81908 whole entry): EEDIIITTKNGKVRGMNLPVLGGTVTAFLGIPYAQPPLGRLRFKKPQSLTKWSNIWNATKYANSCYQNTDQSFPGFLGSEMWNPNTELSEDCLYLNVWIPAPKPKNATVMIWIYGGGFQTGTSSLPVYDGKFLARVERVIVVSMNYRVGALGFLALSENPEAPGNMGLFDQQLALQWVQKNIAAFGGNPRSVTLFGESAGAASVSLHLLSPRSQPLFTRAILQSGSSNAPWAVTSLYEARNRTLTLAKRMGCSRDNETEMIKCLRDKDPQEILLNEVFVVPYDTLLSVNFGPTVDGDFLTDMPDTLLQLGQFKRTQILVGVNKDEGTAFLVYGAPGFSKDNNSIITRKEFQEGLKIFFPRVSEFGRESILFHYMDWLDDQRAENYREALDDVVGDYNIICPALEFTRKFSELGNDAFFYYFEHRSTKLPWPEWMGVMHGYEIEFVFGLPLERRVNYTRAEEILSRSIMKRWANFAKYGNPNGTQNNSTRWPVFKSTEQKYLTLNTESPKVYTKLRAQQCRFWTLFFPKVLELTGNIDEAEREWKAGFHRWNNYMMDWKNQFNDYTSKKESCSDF
Test [1] is described as follows: Selectivity index, ratio of IC50 for equine serum BuChE using butyrylthiocholine chloride as substrate to IC50 for electric eel AChE using acetylthiocholine iodide as substrate incubated for 15 to 20 mins by Ellman's method. The settings on record: time 15-20 min.
Test [2] in a line: Antioxidant activity assessed as ABTS radical scavenging activity. The class given is functional.
Test [3] in a line: Cytotoxicity against human PBMC assessed as reduction in cell viability. The class given is ADME, tissue-based.
For the next test, the system named is HepG2. Put plainly: Cytotoxicity against human HepG2 cells assessed as reduction in cell viability. The class given is ADME, cell-based.
For test [4], the target named is Acetylcholinesterase (Electrophorus electricus) (UniProt O42275). Put plainly: Mixed type inhibition of electric eel AChE assessed as increase in Km at 3.2 to 12.8 uM using varying levels of acetylthiocholine iodide as substrate by Lineweaver-Burk plot analysis. The settings on record: dose 3.2-12.8 µM.
Chain of Acetylcholinesterase (Electrophorus electricus) (O42275 24-633 limits assumed): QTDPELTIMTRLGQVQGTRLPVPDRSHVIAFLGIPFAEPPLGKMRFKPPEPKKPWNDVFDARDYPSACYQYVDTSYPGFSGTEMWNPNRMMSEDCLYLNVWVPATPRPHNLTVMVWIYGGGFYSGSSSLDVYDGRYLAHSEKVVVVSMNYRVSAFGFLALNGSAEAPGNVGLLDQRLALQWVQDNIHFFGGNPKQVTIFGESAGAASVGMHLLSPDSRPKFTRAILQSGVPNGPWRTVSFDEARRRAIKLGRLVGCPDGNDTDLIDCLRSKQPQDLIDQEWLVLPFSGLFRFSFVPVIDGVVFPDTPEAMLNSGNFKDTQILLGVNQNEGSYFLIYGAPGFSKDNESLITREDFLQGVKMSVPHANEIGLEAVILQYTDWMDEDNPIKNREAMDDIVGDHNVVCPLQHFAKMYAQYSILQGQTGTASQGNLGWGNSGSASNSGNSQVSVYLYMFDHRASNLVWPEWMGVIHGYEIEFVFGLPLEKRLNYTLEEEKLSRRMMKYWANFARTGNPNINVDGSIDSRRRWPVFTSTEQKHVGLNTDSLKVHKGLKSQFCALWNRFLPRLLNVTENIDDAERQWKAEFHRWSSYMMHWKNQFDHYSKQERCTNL
The target is the same in test [5]. Put plainly: Mixed type inhibition of electric eel AChE assessed as decrease in Vmax at 3.2 to 12.8 uM using varying levels of acetylthiocholine iodide as substrate by Lineweaver-Burk plot analysis. The following applies: dose 3.2-12.8 µM.

For orientation: IC50 means the concentration needed to halve the response being measured.

Turning to `CC(C)=CCOc1ccc2c(c1)OC(c1ccccc1F)CC2=O` (centres undefined), the IC50 against Acetylcholinesterase is 1.92 µM; against Cholinesterase, 5.47 µM; in test [2], 6.36 µM. Also, in test [1], the Ratio IC50 worked out at 2.85.

Turning to `CC(C)=CCOc1cc(O)c2c(c1)OC(c1cccc(Cl)c1)CC2=O` (centres undefined), the results for the half-maximal inhibitory concentration (IC50) (on Acetylcholinesterase; against Cholinesterase; in test [2]) were 0.99 µM, 6.82 µM and 6.06 µM, respectively. In test [1], the Ratio IC50 is 6.89.

With `CC(C)=CCOc1cc(O)c2c(c1)OC(c1ccc(Cl)cc1Cl)CC2=O` (centres undefined), the IC50 at Acetylcholinesterase was 1.04 µM; against Cholinesterase it was 6.94 µM; in test [2], 3.34 µM. The Ratio IC50 in test [1] was 6.67.

Take `COc1ccc(C2CC(=O)c3ccc(OCC=C(C)C)cc3O2)cc1` (centres undefined): the results for the IC50 (against Acetylcholinesterase; against Cholinesterase; in test [2]) were 0.63 µM, 4.54 µM and 10.2 µM, respectively. For the same molecule, the Ratio IC50 in test [1] was 7.21.

On to `CC(C)=CCOc1cc(O)c2c(c1)OC(c1ccccc1F)CC2=O` (centres undefined), for which the IC50 came to 1.27 µM on Acetylcholinesterase, 7.37 µM against Cholinesterase and 5.3 µM in test [2]. Also, the Ratio IC50 in test [1] was found to be 5.8.

On to `CC(C)=CCOc1ccc2c(c1)OC(c1ccc(C)cc1)CC2=O` (centres undefined), for which the figures for the half-inhibitory concentration (IC50) (against Acetylcholinesterase; on Cholinesterase; in test [2]) were 1.12 µM, 4.09 µM and 4.44 µM, respectively. The Ratio IC50 in test [1] was found to be 3.65.

In the case of `COc1ccc(C2CC(=O)c3ccc(OCC=C(C)C)cc3O2)c(OC)c1` (centres undefined), the figures for the IC50 (on Acetylcholinesterase; against Cholinesterase; in test [2]) were 0.37 µM, 5.65 µM and 8.18 µM, respectively. In addition, in test [1], the Ratio IC50 was found to be 15.3.

On to `CC(C)=CCOc1cc(O)c2c(c1)OC(c1ccc(C)cc1C)CC2=O` (centres undefined), for which the IC50 came out at 0.72 µM on Acetylcholinesterase, 3.92 µM at Cholinesterase and 6.38 µM in test [2]. Moreover, the Ratio IC50 in test [1] is 5.44.

Regarding `COc1ccc(C2CC(=O)c3c(O)cc(OCC=C(C)C)cc3O2)cc1` (centres undefined), the values for the IC50 (at Acetylcholinesterase; at Cholinesterase; in test [2]) were 0.27 µM, 5.77 µM and 5.08 µM, respectively. Further, the Ratio IC50 in test [1] amounted to 21.4.

For `CC(C)=CCOc1ccc2c(c1)OC(c1ccc(Cl)cc1)CC2=O` (centres undefined), the IC50 against Acetylcholinesterase came to 2.12 µM; against Cholinesterase, 4.22 µM; in test [2], 6.97 µM. The Ratio IC50 in test [1] was 1.99.

As for `CC(C)=CCOc1ccc2c(c1)OC(c1ccc(O)cc1)CC2=O` (centres undefined), the figures for the IC50 (at Acetylcholinesterase; on Cholinesterase; in test [2]) were 3.09 µM, 5.02 µM and 6.67 µM, respectively. For the same molecule, the Ratio IC50 in test [1] is 1.62.

`CC(C)=CCOc1cc(O)c2c(c1)OC(c1ccc(C)cc1)CC2=O` (centres undefined): the IC50 against Acetylcholinesterase is 1 µM; against Cholinesterase it was 6.54 µM; in test [2], 4.36 µM. The Ratio IC50 in test [1] is 6.54.

`CC(C)=CCOc1ccc2c(c1)OC(c1ccc(Cl)cc1Cl)CC2=O` (centres undefined): the IC50 at Acetylcholinesterase is 1.33 µM; at Cholinesterase, 3.47 µM; in test [2] it was 5.26 µM. The Ratio IC50 in test [1] worked out at 2.61.

For `CC(C)=CCOc1cc(O)c2c(c1)OC(c1ccccc1Cl)CC2=O` (centres undefined), the results for the IC50 (on Acetylcholinesterase; at Cholinesterase; in test [2]) were 2.14 µM, 7.54 µM and 4.27 µM, respectively. In addition, the Ratio IC50 in test [1] came out at 3.52.

For `CC(C)=CCOc1cc(O)c2c(c1)OC(c1ccc(Br)cc1)CC2=O` (centres undefined), the half-inhibitory concentration (IC50) against Acetylcholinesterase was 0.11 µM; on Cholinesterase, 6.04 µM; in test [2], 2.77 µM; in test [3], over 100 µM; in the test with HepG2, over 80 µM. In addition, the Ratio IC50 in test [1] is 54.9.

For `CC(C)=CCOc1ccc2c(c1)OC(c1ccc(F)cc1)CC2=O` (centres undefined), the IC50 against Acetylcholinesterase amounted to 0.55 µM; against Cholinesterase, 2.58 µM; in test [2], 7.32 µM. Further, the Ratio IC50 in test [1] turned out to be 4.69.

As to `O=C1C[C@@H](c2ccc(O)cc2)Oc2cc(O)ccc21` [LIQUIRTIGENIN], the IC50 against Acetylcholinesterase worked out at 9.1 µM; on Cholinesterase, 14 µM; in test [2] it was 8.96 µM. Further, the Ratio IC50 in test [1] worked out at 1.55.

`CC(C)=CCOc1ccc2c(c1)OC(c1ccccc1Cl)CC2=O` (centres undefined): the IC50 on Acetylcholinesterase came out at 3.17 µM; at Cholinesterase, 5.37 µM; in test [2] it was 8.02 µM. Further, in test [1], the Ratio IC50 worked out at 1.69.

On to `CC(C)=CCOc1ccc2c(c1)OC(c1ccc(C)cc1C)CC2=O` (centres undefined), for which the figures for the IC50 (against Acetylcholinesterase; at Cholinesterase; in test [2]) were 0.94 µM, 3.42 µM and 8.26 µM, respectively. The Ratio IC50 in test [1] was 3.64.

Take `CC(C)=CCOc1ccc2c(c1)OC(c1ccc(Br)cc1)CC2=O` (centres undefined): the IC50 against Acetylcholinesterase was found to be 0.77 µM; against Cholinesterase it was 3.87 µM; in test [2], 8.12 µM. In test [1], the Ratio IC50 came out at 5.03.

For `CC(C)=CCOc1cc(O)c2c(c1)OC(c1ccccc1)CC2=O` (centres undefined), the IC50 on Acetylcholinesterase was determined as 3.04 µM; against Cholinesterase it was 6.54 µM; in test [2] it was 7.32 µM. Also, the Ratio IC50 in test [1] worked out at 2.15.

Turning to `CC(C)=CCOc1ccc2c(c1)OC(c1cccc(Br)c1)CC2=O` (centres undefined), the IC50 on Acetylcholinesterase turned out to be 1.84 µM; at Cholinesterase, 4.5 µM; in test [2], 5.28 µM. For the same molecule, the Ratio IC50 in test [1] was found to be 2.45.

Take `Cc1c(C)c2c(c(C)c1O)CCC(C)(C(=O)O)O2` (centres undefined) [TROLOX]: the IC50 in test [2] stood at 6.12 µM.

Consider `CC(C)=CCOc1cc(O)c2c(c1)OC(c1ccc(F)cc1)CC2=O` (centres undefined), for which the half-inhibitory concentration (IC50) against Acetylcholinesterase stood at 0.24 µM; against Cholinesterase it was 6.84 µM; in test [2] it was 6.06 µM. Besides, the Ratio IC50 in test [1] came out at 28.5.

For `CC(C)=CCOc1cc(O)c2c(c1)OC(c1ccc(Cl)cc1)CC2=O` (centres undefined), the results for the IC50 (at Acetylcholinesterase; against Cholinesterase; in test [2]) were 1.17 µM, 7.07 µM and 7.02 µM, respectively. For the same molecule, the Ratio IC50 in test [1] is 6.04.

`CC(C)=CCOc1ccc2c(c1)OC(c1cccc(F)c1)CC2=O` (centres undefined): the IC50 against Acetylcholinesterase is 1.48 µM; at Cholinesterase it was 4.02 µM; in test [2] it was 4.28 µM. In test [1], the Ratio IC50 is 2.72.

Take `COc1ccc(C2CC(=O)c3c(O)cc(OCC=C(C)C)cc3O2)c(OC)c1` (centres undefined): the 50% inhibitory concentration (IC50) at Acetylcholinesterase is 0.09 µM; against Cholinesterase, 5.46 µM; in test [2] it was 2.32 µM; in test [3] it was over 100 µM; with HepG2 it was over 100 µM. Further, the Ratio IC50 in test [1] was 60.7. Besides, the inhibition result in test [4] and in test [5] was “Active” in each case.

Take `CC(C)=CCOc1ccc2c(c1)OC(c1ccccc1)CC2=O` (centres undefined): the IC50 on Acetylcholinesterase was 5.32 µM; on Cholinesterase it was 9.54 µM; in test [2], 6.07 µM. The Ratio IC50 in test [1] came out at 1.79.

Turning to `CC(C)=CCOc1ccc2c(c1)OC(c1ccccc1Br)CC2=O` (centres undefined), the IC50 at Acetylcholinesterase worked out at 2.02 µM; against Cholinesterase, 5.02 µM; in test [2], 3.18 µM. Also, the Ratio IC50 in test [1] was 2.49.

Turning to `CC(C)=CCOc1cc(O)c2c(c1)OC(c1ccc(O)cc1)CC2=O` (centres undefined), the figures for the IC50 (against Acetylcholinesterase; against Cholinesterase; in test [2]) were 2.37 µM, 5.38 µM and 5.34 µM, respectively. Besides, the Ratio IC50 in test [1] is 2.27.

On to `CC(C)=CCOc1cc(O)c2c(c1)OC(c1cccc(Br)c1)CC2=O` (centres undefined), for which the IC50 at Acetylcholinesterase came to 0.82 µM; against Cholinesterase it was 5.22 µM; in test [2], 4.04 µM. The Ratio IC50 in test [1] amounted to 6.37.

With `CC(C)=CCOc1ccc2c(c1)OC(c1cccc(Cl)c1)CC2=O` (centres undefined), the IC50 was 1.5 µM against Acetylcholinesterase, 3.59 µM against Cholinesterase and 6.3 µM in test [2]. Further, in test [1], the Ratio IC50 amounted to 2.39.

Regarding `CC(C)=CCOc1cc(O)c2c(c1)OC(c1ccccc1Br)CC2=O` (centres undefined), the IC50 amounted to 1.18 µM on Acetylcholinesterase, 3.87 µM at Cholinesterase and 3.82 µM in test [2]. Further, the Ratio IC50 in test [1] worked out at 3.28.

For the molecule `CC(C)=CCOc1cc(O)c2c(c1)OC(c1cccc(F)c1)CC2=O` (centres undefined), the IC50 against Acetylcholinesterase was 0.92 µM; against Cholinesterase it was 5.09 µM; in test [2], 7.24 µM. In addition, the Ratio IC50 in test [1] amounted to 5.53.
